# Assay results as given in patent publication US11845751B2, “Triazolotriazine derivatives as A2A receptor antagonists” (ZHEJIANG VIMGREEN PHARMACEUTICALS, LTD., priority 2018, dated 2023).
# Target: T1, A2AR (hADORA2A-HEK293 cells) (Homo sapiens, UniProt P29274)
# T1 construct: expressed in transfected cells; host or cells: HEK293 (hADORA2A-HEK293)
# Assay: functional cAMP production assay: NECA stimulation of cAMP production and its inhibition by A2AR antagonists
# Assay type: cell-based
# Conditions: not given
# Protocol: The antagonistic activities of the triazolotriazine derivatives of the present invention were measured in a functional cAMP production assay. The assay consists of NECA stimulation of cAMP production and its inhibition by A2AR antagonists in A2AR-expressing HEK293 cells (hADORA2A-HEK293). All cells were cultured in complete medium at 37° C. in 5% CO2. The cells were detached with pancreatin and collected at 200 g for 5 min. After resuspending the cells in fresh complete medium, the cell viability is counted using the trypan blue exclusion method. […] After the cells were diluted with Hank's buffered saline solution containing HEPES (5 mM), BSA stabilizer (0.1%) and […] Rolipram (10 μM), cells were loaded into white opaque 384-well plates (˜500 cells/well, 10 μl/well) and incubated with test compound at a suitable concentration range (11 concentrations) for 20 min at room temperature. Then the A2A receptor agonist NECA (final concentration=EC80, which was determined in the same experiment slightly earlier) was added to the sample and the mixture was incubated again for 30 min at 37° C. […] The inhibition rate (%) was calculated according to the following formula. The IC50 values were calculated from concentration-inhibition (%) curves after log transformation.
# T1 sequence (P29274 whole entry): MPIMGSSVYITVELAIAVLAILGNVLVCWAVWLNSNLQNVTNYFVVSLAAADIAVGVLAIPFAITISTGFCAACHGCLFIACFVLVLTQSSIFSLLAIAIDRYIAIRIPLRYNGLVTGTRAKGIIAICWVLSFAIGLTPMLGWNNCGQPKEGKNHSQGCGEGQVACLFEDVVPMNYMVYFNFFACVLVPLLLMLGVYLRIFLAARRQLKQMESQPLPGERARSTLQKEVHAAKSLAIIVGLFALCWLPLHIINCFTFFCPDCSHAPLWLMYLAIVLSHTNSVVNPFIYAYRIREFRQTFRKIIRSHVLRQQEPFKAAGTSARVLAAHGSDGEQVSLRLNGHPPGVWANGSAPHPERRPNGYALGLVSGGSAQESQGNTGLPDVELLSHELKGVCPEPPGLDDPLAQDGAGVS
row,SMILES,IC50
1,"Nc1nc(NCCc2ccc(OCCN3CC3)cc2)nc2nc(-c3ccco3)nn12 [Example 124, N5-(4-(2-(Aziridin-1-yl)ethoxy)phenethyl)-2-(furan-2-yl)-[1,2,4]triazolo[1,5-a][1,3,5]triazine-5,7-diamine]",8.4 nM

# Same assay, conditions: A2AR-expressing HEK293 cells (hADORA2A-HEK293); NECA at EC80; TR-FRET cAMP readout; read-out: A2AR Potency (IC50, inhibition of NECA-stimulated cAMP production)
row,SMILES,IC50
1,"Nc1nc(NCCc2ccc(OCC3CCN(Cc4cccnc4)C3)cc2)nc2nc(-c3ccco3)nn12 (stereo in doubt) [Example 283, (S)-2-(Furan-2-yl)-N5-(4-((1-(pyridin-3-ylmethyl)pyrrolidin-3-yl)methoxy)phenethyl)-[1,2,4]triazolo[1,5-a][1,3,5]triazine-5,7-diamine]",43.2 nM
2,"CN(C)CCOc1ccc(CCNc2nc(N)n3nc(-c4ccco4)nc3n2)cc1 [Example 13, N5-(4-(2-(Dimethylamino)ethoxy)phenethyl)-2-(furan-2-yl)-[1,2,4]triazolo[1,5-α][1,3,5]-triazine-5,7-diamine]",18 nM
3,"Nc1nc(NCCc2ccc(OCCN3CCCC3)cc2)nc2nc(-c3ccco3)nn12 [Example 16, 2-(Furan-2-yl)-N5-(4-(2-(pyrrolidin-1-yl)ethoxy)phenethyl)-[1,2,4]triazolo[1,5-α][1,3,5]-triazine-5,7-diamine]",24 nM
4,"Nc1nc(NCCc2ccc(OCCCN3CCCC3)cc2)nc2nc(-c3ccco3)nn12 [Example 19, 2-(Furan-2-yl)-N5-(4-(3-(pyrrolidin-1-yl)propoxy)phenethyl)-[1,2,4]triazolo[1,5-α][1,3,5]-triazine-5,7-diamine]",29 nM
5,"Nc1nc(NCCc2ccc(OCc3ccccn3)cc2)nc2nc(-c3ccco3)nn12 [Example 26, 2-(Furan-2-yl)-N5-(4-(pyridin-2-ylmethoxy)phenethyl)-[1,2,4]triazolo[1,5-α][1,3,5]triazine-5,7-diamine]",8 nM
6,"Nc1nc(NCCc2ccc(OCc3ccncc3)cc2)nc2nc(-c3ccco3)nn12 [Example 29, 2-(Furan-2-yl)-N5-(4-(pyridin-4-ylmethoxy)phenethyl)-[1,2,4]triazolo[1,5-α][1,3,5]triazine-5,7-diamine]",7 nM
7,"Nc1nc(NCCc2ccc(OCc3cccnc3)cc2)nc2nc(-c3ccco3)nn12 [Example 32, 2-(Furan-2-yl)-N5-(4-(pyridin-3-ylmethoxy)phenethyl)-[1,2,4]triazolo[1,5-α][1,3,5]triazine-5,7-diamine]",8 nM
8,"Nc1nc(NCCc2ccc(OCCCc3ccncc3)cc2)nc2nc(-c3ccco3)nn12 [Example 36, 2-(Furan-2-yl)-N5-(4-(3-(pyridin-4-yl)propoxy)phenethyl)-[1,2,4]triazolo[1,5-α][1,3,5]-triazine-5,7-diamine]",11 nM
9,"Nc1nc(NCCc2ccc(OCCCc3cccnc3)cc2)nc2nc(-c3ccco3)nn12 [Example 40, 2-(Furan-2-yl)-N5-(4-(3-(pyridin-3-yl)propoxy)phenethyl)-[1,2,4]triazolo[1,5-α][1,3,5]-triazine-5,7-diamine]",11 nM
10,"Nc1nc(NCCc2c[nH]cn2)nc2nc(-c3ccco3)nn12 [Example 42, N5-(2-(1H-Imidazol-4-yl)ethyl)-2-(furan-2-yl)-[1,2,4]triazolo[1,5-α][1,3,5]triazine-5,7-diamine]",129 nM
11,"Nc1nc(NCCc2ccncn2)nc2nc(-c3ccco3)nn12 [Example 44, 2-(Furan-2-yl)-N5-(2-(pyrimidin-4-yl)ethyl)-[1,2,4]triazolo[1,5-α][1,3,5]triazine-5,7-diamine]",63.8 nM
12,"Nc1nc(NCCc2ccc(OCCN3CCCCCC3)cc2)nc2nc(-c3ccco3)nn12 [Example 51, N5-(4-(2-(Azepan-1-yl)ethoxy)phenethyl)-2-(furan-2-yl)-[1,2,4]triazolo[1,5-α][1,3,5]triazine-5,7-diamine]",25.4 nM
13,"Nc1nc(NCCc2ccc(OCCCN3CCCCC3)cc2)nc2nc(-c3ccco3)nn12 [Example 54, 2-(Furan-2-yl)-N5-(4-(3-(piperidin-1-yl)propoxy)phenethyl)-[1,2,4]triazolo[1,5-α][1,3,5]-triazine-5,7-diamine]",19.2 nM
14,"COCCOc1ccc(CCNc2nc(N)n3nc(-c4ccco4)nc3n2)cc1 [Example 57, 2-(Furan-2-yl)-N5-(4-(2-methoxyethoxy)phenethyl)-[1,2,4]triazolo[1,5-α][1,3,5]triazine-5,7-diamine]",7 nM
15,"COCCOCCOc1ccc(CCNc2nc(N)n3nc(-c4ccco4)nc3n2)cc1 [Example 60, 2-(Furan-2-yl)-N5-(4-(2-(2-methoxyethoxy)ethoxy)phenethyl)-[1,2,4]triazolo[1,5-α][1,3,5]triazine-5,7-diamine]",10 nM
16,"COCCOCCOCCOc1ccc(CCNc2nc(N)n3nc(-c4ccco4)nc3n2)cc1 [Example 65, 2-(Furan-2-yl)-N5-(4-(2-(2-(2-methoxyethoxy)ethoxy)ethoxy)phenethyl)-[1,2,4]triazolo[1,5-α][1,3,5]triazine-5,7-diamine]",21.5 nM
17,"COCCOCCOCCOCCOc1ccc(CCNc2nc(N)n3nc(-c4ccco4)nc3n2)cc1 [Example 70, N5-(4-(2,5,8,11-Tetraoxatridecan-13-yloxy)phenethyl)-2-(furan-2-yl)-[1,2,4]triazolo[1,5-α][1,3,5]triazine-5,7-diamine]",19 nM
18,"COCCOCCOCCOCCOCCOc1ccc(CCNc2nc(N)n3nc(-c4ccco4)nc3n2)cc1 [Example 74, N5-(4-(2,5,8,11,14-Pentaoxahexadecan-16-yloxy)phenethyl)-2-(furan-2-yl)-[1,2,4]triazolo[1,5-α][1,3,5]triazine-5,7-diamine]",32.3 nM
19,"COCCOCCOCCOCCOCCOCCOc1ccc(CCNc2nc(N)n3nc(-c4ccco4)nc3n2)cc1 [Example 78, N5-(4-(2,5,8,11,14,17-Hexaoxanonadecan-19-yloxy)phenethyl)-2-(furan-2-yl)-[1,2,4]triazolo[1,5-α][1,3,5]triazine-5,7-diamine]",31.3 nM
20,"Nc1nc(NCCc2ccc(OCCN3CCOCC3)cc2)nc2nc(-c3ccco3)nn12 [Example 82, 2-(Furan-2-yl)-N5-(4-(2-morpholinoethoxy)phenethyl)-[1,2,4]triazolo[1,5-α][1,3,5]triazine-5,7-diamine]",9 nM
21,"Nc1nc(NCCc2ccc(OCCCN3CCOCC3)cc2)nc2nc(-c3ccco3)nn12 [Example 86, 2-(Furan-2-yl)-N5-(4-(3-morpholinopropoxy)phenethyl)-[1,2,4]triazolo[1,5-α][1,3,5]triazine-5,7-diamine]",14.3 nM
22,"Nc1nc(NCCc2ccc(OCCc3ccccn3)cc2)nc2nc(-c3ccco3)nn12 [Example 90, 2-(Furan-2-yl)-N5-(4-(2-(pyridin-2-yl)ethoxy)phenethyl)-[1,2,4]triazolo[1,5-α][1,3,5]triazine-5,7-diamine]",10.9 nM
23,"Nc1nc(NCCc2ccc(OCCOCCN3CCOCC3)cc2)nc2nc(-c3ccco3)nn12 [Example 94, 2-(Furan-2-yl)-N5-(4-(2-(2-morpholinoethoxy)ethoxy)phenethyl)-[1,2,4]triazolo[1,5-α][1,3,5]triazine-5,7-diamine]",16 nM
24,"Nc1nc(NCCc2ccc(OCCN3CCC3)cc2)nc2nc(-c3ccco3)nn12 [Example 98, N5-(4-(2-(Azetidin-1-yl)ethoxy)phenethyl)-2-(furan-2-yl)-[1,2,4]triazolo[1,5-α][1,3,5]triazine-5,7-diamine]",48.5 nM
25,"COCCOCCOCCOCCOCCOCCOCCOc1ccc(CCNc2nc(N)n3nc(-c4ccco4)nc3n2)cc1 [Example 102, N5-(4-(2-(2-(2-(2-(2-(2-(2-Methoxyethoxy)ethoxy)ethoxy)ethoxy)ethoxy)ethoxy)ethoxy)-phenethyl)-2-(furan-2-yl)-[1,2,4]triazolo[1,5-a][1,3,5]triazine-5,7-diamine]",19 nM
26,"COCCOCCOCCOCCOCCOCCOCCOCCOc1ccc(CCNc2nc(N)n3nc(-c4ccco4)nc3n2)cc1 [Example 109, N5-(4-(2-(2-(2-(2-(2-(2-(2-(2-Methoxyethoxy)ethoxy)ethoxy)ethoxy)ethoxy)ethoxy)ethoxy)-ethoxy)phenethyl)-2-(furan-2-yl)-[1,2,4]triazolo[1,5-a][1,3,5]triazine-5,7-diamine]",55 nM
27,"CN(C)CCCOc1ccc(CCNc2cc(N)n3nc(-c4ccco4)nc3c2)cc1 [Example 113, N^7-(4-(3-(Dimethylamino)propoxy)phenethyl)-2-(furan-2-yl)-[1,2,4]triazolo[1,5-a]pyridine-5,7-diamine]",15 nM
28,"COCCOCCOCCOCCOCCOCCOCCOCCOCCOc1ccc(CCNc2nc(N)n3nc(-c4ccco4)nc3n2)cc1 [Example 117, N5-(4-(2-(2-(2-(2-(2-(2-(2-(2-(2-Methoxyethoxy)ethoxy)ethoxy)ethoxy)ethoxy)ethoxy)-ethoxy)ethoxy)ethoxy)phenethyl)-2-(furan-2-yl)-[1,2,4]triazolo[1,5-a][1,3,5]triazine-5,7-diamine]",38 nM
29,"CN1CCC(COc2ccc(CCNc3nc(N)n4nc(-c5ccco5)nc4n3)cc2)CC1 [Example 121, N5-(4-((1-Methylpiperidin-4-yl)methoxy)phenethyl)-2-(furan-2-yl)-[1,2,4]triazolo[1,5-a][1,3,5]triazine-5,7-diamine]",14.1 nM
30,"Nc1nc(NCCc2ccc(OCCF)cc2)nc2nc(-c3ccco3)nn12 [Example 142, N5-(4-(2-Fluoroethoxy)phenethyl)-2-(furan-2-yl)-[1,2,4]triazolo[1,5-a][1,3,5]triazine-5,7-diamine]",8.09 nM
